Experimental data from ChEMBL document CHEMBL1147717, “Development of activity-based probes for trypsin-family serine proteases” (Bioorg Med Chem Lett, 2006).

Legend:
Plasminogen = Plasminogen (Homo sapiens, UniProt P00747); assay: Inhibition of plasmin; settings: read-out: Ki app
Prothrombin = Prothrombin (Homo sapiens, UniProt P00734); assay: Inhibition of thrombin; settings: read-out: Ki app
Trypsin = Trypsin (Homo sapiens, UniProt P07477+P07478+P35030); assay: Inhibition of trypsin; assay type: protein assay
Tryptase beta-1 = Tryptase beta-1 (Homo sapiens, UniProt Q15661); assay: Inhibition of beta tryptase; settings: read-out: Ki app
Sequence of Tryptase beta-1 (Q15661 whole entry): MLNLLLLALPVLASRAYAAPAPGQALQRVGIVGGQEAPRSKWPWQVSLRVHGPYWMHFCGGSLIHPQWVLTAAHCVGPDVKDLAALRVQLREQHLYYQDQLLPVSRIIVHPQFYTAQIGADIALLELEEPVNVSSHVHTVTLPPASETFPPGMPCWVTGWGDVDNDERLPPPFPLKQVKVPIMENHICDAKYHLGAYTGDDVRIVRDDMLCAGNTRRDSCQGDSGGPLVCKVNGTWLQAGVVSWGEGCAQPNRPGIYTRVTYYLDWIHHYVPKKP

Sequence of Plasminogen (P00747 97-580 limits assumed): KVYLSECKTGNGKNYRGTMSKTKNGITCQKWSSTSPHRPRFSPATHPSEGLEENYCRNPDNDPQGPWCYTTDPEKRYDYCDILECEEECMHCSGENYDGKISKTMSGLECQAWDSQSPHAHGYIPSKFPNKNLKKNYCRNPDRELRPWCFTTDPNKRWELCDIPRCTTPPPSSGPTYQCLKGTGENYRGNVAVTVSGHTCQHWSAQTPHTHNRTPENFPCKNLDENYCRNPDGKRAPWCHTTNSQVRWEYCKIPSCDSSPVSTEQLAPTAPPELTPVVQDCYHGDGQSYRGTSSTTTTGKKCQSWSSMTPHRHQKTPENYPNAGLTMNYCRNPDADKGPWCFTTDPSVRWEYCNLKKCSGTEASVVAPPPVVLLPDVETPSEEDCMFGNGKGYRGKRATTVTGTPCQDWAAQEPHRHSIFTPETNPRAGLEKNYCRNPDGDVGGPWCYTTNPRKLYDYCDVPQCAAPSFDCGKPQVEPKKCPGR
Sequence of Plasminogen (P00747 581-810 limits assumed): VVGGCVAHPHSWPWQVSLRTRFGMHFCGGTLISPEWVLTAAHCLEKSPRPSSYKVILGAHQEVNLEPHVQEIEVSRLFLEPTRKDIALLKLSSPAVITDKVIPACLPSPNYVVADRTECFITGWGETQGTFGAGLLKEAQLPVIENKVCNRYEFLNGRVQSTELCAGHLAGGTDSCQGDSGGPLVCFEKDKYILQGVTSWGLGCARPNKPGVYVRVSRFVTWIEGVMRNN

Row | Compound | Ki (Plasminogen) [nM] | Ki (Prothrombin) [nM] | Ki app (Trypsin) [nM] | Ki (Tryptase beta-1) [nM]
1 | NCCCC[C@@H](NC(=O)[C@@H]1CCCN1C(=O)CCOCCOCCOCCOCCNC(=O)CCCC[C@@H]1SC[C@@H]2NC(=O)N[C@@H]21)P(=O)(Oc1ccccc1)Oc1ccccc1 | 2900 | 1070 | 570 | 6200
2 | NCCCC[C@@H](NC(=O)[C@H](CC(N)=O)NC(=O)CCOCCOCCOCCOCCNC(=O)CCCC[C@@H]1SC[C@@H]2NC(=O)N[C@@H]21)P(=O)(Oc1ccccc1)Oc1ccccc1 | 4030 | > 100000 | 57300 | 2500
